Measured values from publication PMC10354012, “Cloxyquin activates hTRESK by allosteric modulation of the selectivity filter” (Communications Biology, 2023).

Biological target: T1, hTRESK (TWIK-related spinal cord K+ channel, K2P18.1) (Homo sapiens, UniProt Q7Z418)
T1 construct: gene KCNK18; homodimeric hTRESK WT expressed in Xenopus laevis oocytes
T1 sequence (Q7Z418 1-384): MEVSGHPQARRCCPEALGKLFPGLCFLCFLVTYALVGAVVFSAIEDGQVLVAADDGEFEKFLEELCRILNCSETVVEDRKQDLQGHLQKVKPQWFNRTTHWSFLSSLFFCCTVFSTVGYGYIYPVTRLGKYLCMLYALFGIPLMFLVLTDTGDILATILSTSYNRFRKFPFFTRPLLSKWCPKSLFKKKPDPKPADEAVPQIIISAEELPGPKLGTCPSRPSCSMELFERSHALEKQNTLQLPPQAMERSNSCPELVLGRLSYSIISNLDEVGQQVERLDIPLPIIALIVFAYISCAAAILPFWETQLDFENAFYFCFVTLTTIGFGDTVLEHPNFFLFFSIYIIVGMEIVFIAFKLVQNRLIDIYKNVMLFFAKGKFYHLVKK
Test: TEVC dose-response in Xenopus oocytes, supported by alanine scan
Format: cell-based

Compound `Oc1ccc(Cl)c2cccnc12` [clx, 5-chloro-8-hydroxyquinoline] has an EC50 of 64 ± 11 µM.
